Legend:
PARP2 = PARP2 (Homo sapiens, UniProt Q9UGN5); experiment: PARP1 and PARP2 Chemiluminescent Assay
Experimental: (§1) The solutions were added to a 96-well plate coated with histone mixture, incubated at room temperature for 1 h, then 50 μL 0.3 ng/mL Streptavidin-HRP was added to each well. The plates were incubated for 30 minutes at room temperature. Finally, the plates were treated with streptavidin-HRP followed by addition of the ELISA ECL substrate to produce chemiluminescence that can be measured using a chemiluminescence reader. Inhibition of the tested compound to PARP1/2 enzyme activity was calculated according to the following formula.Inhibition ⁢ ( % ) = Readings ⁢ of ⁢ positive ⁢ control - X Readings ⁢ of ⁢ positive ⁢ control - Readings ⁢ of ⁢ negative ⁢ controlIC50 value is obtained by fitting the s-shaped dose response curve equation by using XL Fit software. The curve equation is Y=100/(1+10^(logC−logIC50)), C is the compound concentration.

[1] = molecular target: Poly [ADP-ribose] polymerase 1 (Homo sapiens, UniProt P09874); experiment: PARP1 and PARP2 Chemiluminescent Assay
Poly [ADP-ribose] polymerase 1, sequence (P09874 whole entry): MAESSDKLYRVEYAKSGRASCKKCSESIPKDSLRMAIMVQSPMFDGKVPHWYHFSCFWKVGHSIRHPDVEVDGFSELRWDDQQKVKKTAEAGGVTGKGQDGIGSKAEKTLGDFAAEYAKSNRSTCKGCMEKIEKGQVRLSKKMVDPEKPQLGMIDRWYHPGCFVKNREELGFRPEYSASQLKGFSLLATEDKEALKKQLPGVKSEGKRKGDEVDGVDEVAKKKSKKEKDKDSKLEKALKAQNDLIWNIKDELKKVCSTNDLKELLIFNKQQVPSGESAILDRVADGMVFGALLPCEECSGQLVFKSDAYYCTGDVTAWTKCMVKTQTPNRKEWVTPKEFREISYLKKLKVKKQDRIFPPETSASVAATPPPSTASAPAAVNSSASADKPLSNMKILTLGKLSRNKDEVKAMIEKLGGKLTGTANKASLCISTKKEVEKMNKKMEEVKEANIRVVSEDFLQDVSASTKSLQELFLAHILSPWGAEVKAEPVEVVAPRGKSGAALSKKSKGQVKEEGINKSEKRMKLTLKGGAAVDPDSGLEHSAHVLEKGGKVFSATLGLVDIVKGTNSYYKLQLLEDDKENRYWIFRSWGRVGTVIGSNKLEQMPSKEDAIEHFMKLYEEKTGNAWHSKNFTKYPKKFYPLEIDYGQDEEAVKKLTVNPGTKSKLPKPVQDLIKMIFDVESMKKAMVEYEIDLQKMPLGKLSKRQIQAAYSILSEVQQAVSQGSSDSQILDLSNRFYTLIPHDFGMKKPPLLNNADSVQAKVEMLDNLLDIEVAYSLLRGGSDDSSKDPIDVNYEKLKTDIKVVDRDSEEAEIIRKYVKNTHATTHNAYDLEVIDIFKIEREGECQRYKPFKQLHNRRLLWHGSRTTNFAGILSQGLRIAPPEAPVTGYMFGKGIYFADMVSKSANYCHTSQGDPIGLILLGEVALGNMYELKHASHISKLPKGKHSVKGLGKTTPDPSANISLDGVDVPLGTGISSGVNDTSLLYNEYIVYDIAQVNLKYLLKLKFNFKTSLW
Experimental: as §1

PARP2, sequence (Q9UGN5 whole entry): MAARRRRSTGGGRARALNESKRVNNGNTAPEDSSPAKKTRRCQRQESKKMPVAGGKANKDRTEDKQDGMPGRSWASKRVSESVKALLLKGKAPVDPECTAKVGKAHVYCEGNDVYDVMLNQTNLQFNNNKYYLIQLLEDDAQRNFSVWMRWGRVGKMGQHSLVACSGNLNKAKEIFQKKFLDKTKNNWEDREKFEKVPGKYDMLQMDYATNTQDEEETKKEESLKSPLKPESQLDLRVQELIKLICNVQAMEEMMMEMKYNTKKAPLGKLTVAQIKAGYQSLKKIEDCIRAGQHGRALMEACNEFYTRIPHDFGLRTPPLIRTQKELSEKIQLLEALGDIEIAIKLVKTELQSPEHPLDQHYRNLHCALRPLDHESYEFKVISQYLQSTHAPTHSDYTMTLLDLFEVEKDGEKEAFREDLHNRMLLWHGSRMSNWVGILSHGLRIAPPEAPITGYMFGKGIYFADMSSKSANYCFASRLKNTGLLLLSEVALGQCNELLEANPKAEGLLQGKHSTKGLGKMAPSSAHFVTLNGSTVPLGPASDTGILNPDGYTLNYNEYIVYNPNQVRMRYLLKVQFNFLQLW

SMILES | IC50 (PARP2) [nM] | IC50 [1] [nM]
CNC(=O)c1ccc(N2CCN(Cc3ccc4c([nH]c(=O)c5c(F)cnn54)c3F)CC2)c(F)n1 [US20250215013, Example 188] | 1540 | 0.4
CNC(=O)c1ccc(N2CCN(Cc3ccc4c([nH]c(=O)n5ccnc45)c3F)CC2)c(C)n1 [US20250215013, Example 50] | > 10000 | 2.13

— BindingDB's records for patent US20250215013 (Impact Therapeutics (Shanghai), 2025)
